Some test systems named below: SN12C; SK-MEL-2; HL-60; NCI-H460; U-251; K562; DMS-273; NCI-H23; RPMI-8226; OVCAR-5; RXF 393; OVCAR-8; IGROV-1; SNB-19; KM12; PC-3; HOP-92; Hs-578T; OVCAR-4; MDA-MB-435.
What all share (assay): inhibition of tumour cell growth, NCI panel, 48 h

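Compound exposure: 48 hours, 5 concentrations, 96-well plates. Abbreviation: GI50, concentration required for 50% inhibition of growth.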 Calls of active or inactive are those of the source. Cut-off read from the data, not from the text of the source: active = GI50 up to about 1.1 µM and inactive = higher. Bounds are passed on as bounds.

As to `C=CCn1c(=S)sc2c(C(=O)OCC)c3c(C)cc(C)cn3c2c1=O`, the GI50 with SN12C was > 100 µM (inactive); with SK-MEL-2 it was > 100 µM (inactive); in the assay on HL-60, > 100 µM (inactive); with NCI-H460, > 100 µM (inactive); with U-251, 75.9 µM (inactive); in the assay with K562 it was > 100 µM (inactive). Also, the GI50 in the assay on DMS-273, in the assay with NCI-H23, with RPMI-8226, with OVCAR-5, in the assay with RXF 393 and in the assay on OVCAR-8 was > 100 µM (inactive) each time. Besides, the GI50 in the assay with IGROV-1 and in the assay with SNB-19 was > 100 µM (inactive) in each case.

For the molecule `Nc1ncnc2c1ncn2CCCC(c1ccccc1)P(=O)(O)O` (centres undefined), the GI50 in the assay on SN12C, in the assay with SK-MEL-2, with HL-60, in the assay on NCI-H460, in the assay on U-251 and in the assay with DMS-273 was > 100 µM (inactive) each time. Besides, the GI50 in the assay with NCI-H23, with KM12, in the assay on OVCAR-5, in the assay on RXF 393, in the assay on OVCAR-8 and in the assay on IGROV-1 was > 100 µM (inactive) each time. Besides, in the assay on SNB-19, the GI50 is > 100 µM (inactive).

Regarding `CC(C)(C)COC(=O)C(C)(C)NC(=O)C(CC(=O)OCc1ccccc1)NC(=O)OCc1ccccc1` (centres undefined), the GI50 with SN12C is 25.6 µM (inactive); with PC-3, 25.7 µM (inactive); in the assay with SK-MEL-2, 49 µM (inactive); in the assay on HL-60 it was 46.5 µM (inactive); in the assay on NCI-H460, 30 µM (inactive); with U-251, 31.5 µM (inactive). In addition, the GI50 in the assay with K562 was 30.1 µM (inactive); in the assay with NCI-H23, 26.7 µM (inactive); with KM12 it was 35.2 µM (inactive); in the assay on RPMI-8226, 26.5 µM (inactive); with HOP-92, 53.1 µM (inactive); with OVCAR-5, 26.8 µM (inactive). In addition, the GI50 is > 100 µM (inactive) in the assay with RXF 393; 27.9 µM (inactive) in the assay on Hs-578T; 40.1 µM (inactive) in the assay with OVCAR-8; 61 µM (inactive) with IGROV-1; 50.5 µM (inactive) with OVCAR-4; 38.3 µM (inactive) in the assay with SNB-19. For the same molecule, in the assay on MDA-MB-435, the GI50 is 25.8 µM (inactive).

As to `CN(CCCN(C)CCc1ccc(Cl)c(Cl)c1)CCCN1CCCC1`, the GI50 with SN12C is 3.12 µM (inactive); in the assay on PC-3, 3.35 µM (inactive); in the assay with SK-MEL-2 it was 1.83 µM (inactive); in the assay on HL-60, 1.62 µM (inactive); in the assay on NCI-H460 it was 2.27 µM (inactive); with U-251, 1.92 µM (inactive). In addition, the GI50 with K562 was 0.532 µM (active); in the assay on NCI-H23, 3.31 µM (inactive); in the assay on KM12 it was 2.61 µM (inactive); with RPMI-8226, 0.228 µM (active); with HOP-92, 2.13 µM (inactive); in the assay on OVCAR-5, 3.3 µM (inactive). Moreover, the GI50 was 1.61 µM (inactive) in the assay on RXF 393; 1.48 µM (inactive) in the assay with Hs-578T; 2.82 µM (inactive) in the assay with OVCAR-8; 3.11 µM (inactive) with IGROV-1; 7.28 µM (inactive) in the assay with OVCAR-4; 3.61 µM (inactive) in the assay on SNB-19. Moreover, the GI50 in the assay with MDA-MB-435 was 0.531 µM (active).

In the case of `COc1cc(/C=C/C2=NN(c3cccc(S(=O)(=O)O)c3)C3(C2)C(Cl)C(=O)N3c2nc3ccccc3s2)ccc1O` (centres undefined), the GI50 with SN12C was 21.9 µM (inactive); in the assay with PC-3, 25.6 µM (inactive); in the assay with SK-MEL-2 it was 39.7 µM (inactive); in the assay on HL-60, 21.4 µM (inactive); with NCI-H460, 32.7 µM (inactive); in the assay with U-251, 18 µM (inactive). Besides, the GI50 in the assay with K562 is 20.8 µM (inactive); in the assay on NCI-H23, 13 µM (inactive); in the assay on KM12, 19.1 µM (inactive); with RPMI-8226 it was 16.1 µM (inactive); in the assay on HOP-92, 13.2 µM (inactive); in the assay with OVCAR-5, 20.2 µM (inactive). Further, the GI50 in the assay on RXF 393 was 29.2 µM (inactive); in the assay with Hs-578T it was 50 µM (inactive); in the assay on OVCAR-8, 18.3 µM (inactive); with IGROV-1, 13.7 µM (inactive); with OVCAR-4, 16.1 µM (inactive); in the assay on SNB-19, 65.9 µM (inactive). In the assay with MDA-MB-435, the GI50 is 17.1 µM (inactive).

In the case of `COc1ccc(/C=C2\CCCCC2=O)cc1`, the GI50 with SN12C, in the assay on HL-60, with NCI-H460, with U-251, with K562 and in the assay with DMS-273 was > 100 µM (inactive) each time. In addition, the GI50 in the assay on NCI-H23, in the assay with OVCAR-8, with IGROV-1 and with OVCAR-4 was > 100 µM (inactive) throughout.

Regarding `CCOC(=O)CC1(N)CC2c3ccccc3OC(=O)C2C(=O)N1` (centres undefined), the GI50 in the assay with SN12C, with PC-3, in the assay on SK-MEL-2, in the assay with HL-60, with NCI-H460 and in the assay with U-251 was > 100 µM (inactive) in each case. The GI50 in the assay on K562, in the assay with NCI-H23, in the assay on KM12, with RPMI-8226, with HOP-92 and with OVCAR-5 was > 100 µM (inactive) each time. The GI50 in the assay with RXF 393, in the assay on Hs-578T, in the assay with OVCAR-8, in the assay on IGROV-1, with OVCAR-4 and in the assay on SNB-19 was > 100 µM (inactive) throughout. Besides, in the assay with MDA-MB-435, the GI50 is > 100 µM (inactive).

Consider `COc1ccc2c(c1)CCc1cc(C(N)=O)c3nnnn3c1-2`, for which the GI50 with SN12C is 99.8 µM (inactive); with PC-3, > 57.9 µM (inactive); with SK-MEL-2, > 42.1 µM (inactive); in the assay with HL-60, > 100 µM (inactive); in the assay on NCI-H460 it was 12.2 µM (inactive); with U-251, 23.6 µM (inactive). For the same molecule, the GI50 in the assay with K562 is > 96.6 µM (inactive); in the assay on NCI-H23, 60.1 µM (inactive); with KM12, > 100 µM (inactive); with RPMI-8226, > 100 µM (inactive); in the assay with HOP-92 it was 30.9 µM (inactive); in the assay on OVCAR-5, > 100 µM (inactive). The GI50 in the assay on RXF 393 is 16.9 µM (inactive); in the assay with Hs-578T, 0.408 µM (active); in the assay with OVCAR-8, > 52.7 µM (inactive); in the assay on IGROV-1, 39.3 µM (inactive); in the assay on OVCAR-4 it was > 81.3 µM (inactive); with SNB-19, 64.7 µM (inactive). Also, the GI50 in the assay with MDA-MB-435 is > 100 µM (inactive).

For the molecule `NS(=O)(=O)c1ccc(NC(=S)N/C=C2\C(=O)Oc3ccccc3C2=O)cc1`, the GI50 is 22.5 µM (inactive) in the assay with SN12C; 36.1 µM (inactive) in the assay with PC-3; 15.3 µM (inactive) in the assay on SK-MEL-2; 21.4 µM (inactive) in the assay with HL-60; 39.1 µM (inactive) in the assay with NCI-H460; 36.2 µM (inactive) in the assay with U-251. In addition, the GI50 is 35.1 µM (inactive) in the assay with K562; 38.5 µM (inactive) in the assay on NCI-H23; 16.5 µM (inactive) in the assay with KM12; 30.4 µM (inactive) in the assay with RPMI-8226; 15.3 µM (inactive) in the assay on HOP-92; 54.5 µM (inactive) in the assay with OVCAR-5. Moreover, the GI50 in the assay with RXF 393 was 12.2 µM (inactive); in the assay with Hs-578T it was 17.5 µM (inactive); in the assay with OVCAR-8, 16.2 µM (inactive); in the assay with IGROV-1, 18.9 µM (inactive); in the assay on OVCAR-4 it was 43 µM (inactive); in the assay with SNB-19, 19 µM (inactive). Besides, in the assay with MDA-MB-435, the GI50 is 43.5 µM (inactive).

Consider `CCOC(=O)/C1=C(\C)N(Cc2ccccc2)C(=O)c2ccccc2C(=O)c2c(O)ccc(O)c21`, for which the GI50 in the assay with SN12C, with PC-3, in the assay with SK-MEL-2, in the assay with HL-60, in the assay with NCI-H460 and with U-251 was > 100 µM (inactive) each time. Also, the GI50 is > 100 µM (inactive) in the assay on K562; > 100 µM (inactive) with NCI-H23; > 100 µM (inactive) in the assay on KM12; 66.7 µM (inactive) in the assay with RPMI-8226; 48.4 µM (inactive) with HOP-92; > 100 µM (inactive) in the assay on OVCAR-5. Besides, the GI50 is 17.5 µM (inactive) in the assay with RXF 393; > 100 µM (inactive) in the assay on Hs-578T; > 100 µM (inactive) with OVCAR-8; 34.7 µM (inactive) in the assay with IGROV-1; > 100 µM (inactive) in the assay on OVCAR-4; > 100 µM (inactive) with SNB-19. The GI50 with MDA-MB-435 was > 100 µM (inactive).

Consider `O=c1cc(N2CCCC2)[nH]c(=O)n1-c1ccc(F)cc1`, for which the GI50 in the assay with SN12C, with PC-3, in the assay with SK-MEL-2, in the assay with HL-60, in the assay on NCI-H460 and with U-251 was > 100 µM (inactive) each time. The GI50 in the assay with K562, with NCI-H23, with KM12, in the assay with RPMI-8226, in the assay on HOP-92 and in the assay on OVCAR-5 was > 100 µM (inactive) each time. For the same molecule, the GI50 with RXF 393, in the assay with Hs-578T, with OVCAR-8, in the assay on IGROV-1, in the assay on OVCAR-4 and in the assay on SNB-19 was > 100 µM (inactive) throughout. Moreover, the GI50 with MDA-MB-435 is > 100 µM (inactive).

(Values after ChEMBL document CHEMBL1201862, “PubChem BioAssay data set” (2004).)
